Data: ChEMBL document CHEMBL1201862, “PubChem BioAssay data set” (2004)
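Where inhibition never reached the appropriate level, the endpoint shown equals the highest concentration tested. Otherwise, values were interpolated linearly from a five-concentration, 48-hour dose response in 96-well plates. GI50 = concentration required for 50% inhibition of growth.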 The source made the active and inactive calls. Cut-off read from the data, not from the text of the source: active = GI50 up to about 1.1 µM and inactive = higher.

How the values were obtained:
Assay in all cases: DTP human tumour cell line panel, 48 h
NCI-H460 = test system: NCI-H460
KM12 = test system: KM12
HOP-62 = test system: HOP-62
SW-620 = test system: SW-620
EKVX = test system: EKVX
SK-MEL-5 = test system: SK-MEL-5
MOLT-4 = test system: MOLT-4
Malme-3M = test system: Malme-3M
HCT-15 = test system: HCT-15
HL-60 = test system: HL-60
OVCAR-4 = test system: OVCAR-4
DMS-273 = test system: DMS-273
786-0 = test system: 786-0
OVCAR-8 = test system: OVCAR-8
SNB-19 = test system: SNB-19
HT-29 = test system: HT-29
UACC-257 = test system: UACC-257
DU-145 = test system: DU-145
MDA-N = test system: MDA-N
Hs-578T = test system: Hs-578T

Structure (SMILES) | GI50 (NCI-H460) | GI50 (KM12) | GI50 (HOP-62) | GI50 (SW-620) | GI50 (EKVX) | GI50 (SK-MEL-5) | GI50 (MOLT-4) | GI50 (Malme-3M) | GI50 (HCT-15) [µM] | GI50 (HL-60) | GI50 (OVCAR-4) | GI50 (DMS-273) | GI50 (786-0) | GI50 (OVCAR-8) | GI50 (SNB-19) | GI50 (HT-29) | GI50 (UACC-257) | GI50 (DU-145) | GI50 (MDA-N) | GI50 (Hs-578T)
Cc1cc2c(cc1Br)C1(C)CCC(C)C1(C)O2 (configuration not stated) | 23.7 µM (inactive) | 31.6 µM (inactive) | 30.3 µM (inactive) | 40.1 µM (inactive) | 55.6 µM (inactive) | 29.1 µM (inactive) | 17.9 µM (inactive) | 16.9 µM (inactive) | 36.6 | 13.4 µM (inactive) | 39.8 µM (inactive) | 19.6 µM (inactive) | 23.1 µM (inactive) | 29.6 µM (inactive) | 36 µM (inactive) | 30.6 µM (inactive) | 30.5 µM (inactive) |  |  | 
COc1c2nc(CCl)[nH]c(=O)c2c(OC)c2nc(CCl)[nH]c(=O)c12 | > 100 µM (inactive) | > 100 µM (inactive) | > 100 µM (inactive) | > 100 µM (inactive) |  | > 100 µM (inactive) | > 100 µM (inactive) | > 100 µM (inactive) | > 100 | > 100 µM (inactive) | > 100 µM (inactive) | > 100 µM (inactive) | > 100 µM (inactive) | > 100 µM (inactive) | > 100 µM (inactive) | > 100 µM (inactive) | > 100 µM (inactive) |  |  | 
COc1ccc2c3c(coc13)C(CCC(=O)O)CC2 (configuration not stated) | > 100 µM (inactive) |  | > 100 µM (inactive) | > 100 µM (inactive) | > 100 µM (inactive) | > 100 µM (inactive) |  |  | > 100 |  | > 100 µM (inactive) | > 100 µM (inactive) | > 100 µM (inactive) | > 100 µM (inactive) | > 100 µM (inactive) | > 100 µM (inactive) | > 100 µM (inactive) |  |  | 
CNC(=O)CN(CC(=O)NC)C(=O)NC |  | > 100 µM (inactive) | > 100 µM (inactive) | > 100 µM (inactive) | > 100 µM (inactive) | > 100 µM (inactive) | > 100 µM (inactive) | > 100 µM (inactive) | > 100 | > 100 µM (inactive) | > 100 µM (inactive) | > 100 µM (inactive) | > 100 µM (inactive) | > 100 µM (inactive) | > 100 µM (inactive) | > 100 µM (inactive) | > 100 µM (inactive) |  |  | 
COC(=O)N1CCc2c(nc(N(C)CCO)[nH]c2=O)C1 | > 100 µM (inactive) | > 100 µM (inactive) | > 100 µM (inactive) | > 100 µM (inactive) | > 100 µM (inactive) | > 100 µM (inactive) | > 100 µM (inactive) | > 100 µM (inactive) | > 100 | > 100 µM (inactive) |  | > 100 µM (inactive) | > 100 µM (inactive) | > 100 µM (inactive) | > 100 µM (inactive) | > 100 µM (inactive) | > 100 µM (inactive) |  |  | 
O=C1c2ccoc2C(=O)c2oc(=O)ccc21 | 18.7 µM (inactive) | > 42 µM (inactive) | > 46.1 µM (inactive) | 4.23 µM (inactive) | 20.8 µM (inactive) | 1.7 µM (inactive) |  | 3.16 µM (inactive) | 12 | 2.32 µM (inactive) | 5.13 µM (inactive) | 16.8 µM (inactive) | 16.8 µM (inactive) | 6.35 µM (inactive) | 16 µM (inactive) | 36.4 µM (inactive) | 7.33 µM (inactive) |  |  | 
CC(C)OP(=O)(NC(=S)c1ccccc1)OC(C)C | 23.4 µM (inactive) | > 100 µM (inactive) |  | > 100 µM (inactive) | > 100 µM (inactive) | 34.5 µM (inactive) | 80.7 µM (inactive) | > 100 µM (inactive) | > 100 |  | > 100 µM (inactive) | > 100 µM (inactive) | > 100 µM (inactive) | > 100 µM (inactive) | > 100 µM (inactive) | 43.5 µM (inactive) | > 100 µM (inactive) |  |  | 
O=CCCCCCOCc1ccccc1 | 23.3 µM (inactive) | 54.3 µM (inactive) | 29.4 µM (inactive) | 60.1 µM (inactive) | > 100 µM (inactive) | 25.4 µM (inactive) | 16.9 µM (inactive) | > 67.1 µM (inactive) | 37.4 | 11.6 µM (inactive) | > 87.5 µM (inactive) |  | 23.8 µM (inactive) | > 69.8 µM (inactive) | > 87.1 µM (inactive) | > 100 µM (inactive) | > 60.8 µM (inactive) | 71.9 µM (inactive) | > 100 µM (inactive) | > 100 µM (inactive)
COc1cccc2c1C(=O)C(=O)c1c-2oc(=O)c2cc(C)cc(OC)c12 | > 75 µM (inactive) | 21.1 µM (inactive) | 15.9 µM (inactive) | 29.4 µM (inactive) | 22.5 µM (inactive) | 17 µM (inactive) | 23 µM (inactive) | 26.9 µM (inactive) | 13.4 | 25.7 µM (inactive) | 14.9 µM (inactive) |  | 26.2 µM (inactive) | 14.9 µM (inactive) | 37.8 µM (inactive) | 22.6 µM (inactive) | 14.9 µM (inactive) | 13.6 µM (inactive) | 17.5 µM (inactive) | 19.6 µM (inactive)
